Assay: Solubility of triclosan in aqueous solutions, filtration methodology (filtrate analyzed for triclosan)
Type: physicochemical
Protocol: In the first set of experiments, the solubility of triclosan in the presence/ absence of KCl was measured using a filtration methodology in which the filtrate was analyzed for triclosan.
In the following experiments, triclosan solubility was measured with increasing concentrations of hydroxypropyl-beta-cyclodextrin (no SLS, no KCl).
In the next experiments, triclosan solubility was measured in the presence of hydroxypropyl-beta-cyclodextrin along with SLS and KCl.

## Oc1cc(Cl)ccc1Oc1ccc(Cl)cc1Cl [Triclosan, 2,4,4′-trichloro-2′-hydroxy-diphenyl ether]
0% SLS - 0% (control)
  Appearance: Suspension and no precipitate
1.5% SLS - 0% KCl
  Appearance: Suspension and no precipitate
1.5% SLS - 3.75% KCl
  Appearance: Turbid and thick precipitate
Table 3, 0% SLS - 0% (control)
  Triclosan solubility, %: 0.012%
Table 3, 1.5% SLS - 0% KCl
  Triclosan solubility, %: 0.330%
Table 3, 1.5% SLS - 0% KCl, listed as triclosan
  Triclosan solubility, %: increased the solubility
Table 3, 1.5% SLS - 3.75% KCl
  Triclosan solubility, %: 0.110%
Table 3, 1.5% SLS - 3.75% KCl, listed as triclosan
  Triclosan solubility, %: decreased solubility
Table 4, 0% HPβCD in water (no SLS, no KCl)
  Triclosan solubility, %: 0.012%
Table 4, 10% HPβCD in water (no SLS, no KCl)
  Triclosan solubility, %: 0.510%
Table 4, 15% HPβCD in water (no SLS, no KCl)
  Triclosan solubility, %: 0.680%
Table 4, 20% HPβCD in water (no SLS, no KCl)
  Triclosan solubility, %: 0.710%
Table 5, 0% SLS
  Triclosan solubility, %: 0.012%
Table 5, 1.5% SLS - 3.75% KCl
  Triclosan solubility, %: 0.011%
Table 5, 1.5% SLS - 3.75 KCl - 10% HPbCD
  Triclosan solubility, %: 0.190%
Table 5, 1.5% SLS - 3.75 KCl - 20% HPbCD
  Triclosan solubility, %: 0.380%
No SLS, no KCl
  triclosan solubility with increasing concentrations of hydroxypropyl-beta-cyclodextrin: increased in a dose-dependent manner
With SLS and KCl
  triclosan solubility in the presence of hydroxypropyl-beta-cyclodextrin along with SLS and KCl: increased solubility

Reference: patent US20120039822A1, “DESENSITIZING DENTIFRICE” (priority 2009, published 2012)
